Entries after “also recorded” stand apart in the source; their conditions may differ.

Holding throughout (type): cell-based
The subject of assay [1] is FOXO3 gene expression in fibroblasts. Kind of assay: FOXO3 gene expression in fibroblasts. To be noted: older cells (passage 20), P<0.01, FIG. 1. The source says:
(§1) Experiments have shown that taltirelin modulates the gene expression in fibroblasts of a variety of genes involved in processes underlying ageing.
(§2) FIG. 1 illustrates the increased expression of FOXO1 and FOXO3 genes that occurs in fibroblasts by administration of taltirelin. From the results, it can be seen that the administration of taltirelin in older cells (passage 20) led to a large increase in the expression of FOXO1 (>5×) and FOXO3 (>1.5×) compared to untreated controls. The results were statistically significant with P<0.01.

The subject of assay [2] is NFE2L2 gene expression in fibroblasts. The assay can be described thus: NFE2L2 gene expression in fibroblasts. To be noted: older cells (passage 20), FIG. 2. The text has this:
(§3) FIG. 2 illustrates the increased expression of EFNB1, NFE2L2, SERPINE1 and SIRT1 genes in fibroblasts that occurs by administration of taltirelin.

Assay [3] deals with EFNB1 gene expression in fibroblasts. The assay can be described thus: EFNB1 gene expression in fibroblasts. To be noted: older cells (passage 20), FIG. 2.
Source text: as §3

Assay [4] relates to SERPINE1 gene expression in fibroblasts. The assay can be described thus: SERPINE1 gene expression in fibroblasts. To be noted: older cells (passage 20), FIG. 2.
Source text: as §3

Assay [5] concerns FOXO1 gene expression in fibroblasts. Kind of assay: FOXO1 gene expression in fibroblasts. To be noted: older cells (passage 20), P<0.01, FIG. 1.
Source text: as §1, §2

Assay [6] relates to SIRT1 gene expression in fibroblasts. The assay can be described thus: SIRT1 gene expression in fibroblasts. The following applies: older cells (passage 20), FIG. 2.
Source text: as §3

In the case of `CN1C(=O)C[C@@H](C(=O)N[C@@H](Cc2cnc[nH]2)C(=O)N2CCC[C@H]2C(N)=O)NC1=O` [taltirelin, N-[[(4S)-Hexahydro-1-methyl-2,6-dioxo-4-pyrimidinyl]carbonyl]-L-histidyl-L-prolinamide], the “increase in the expression of FOXO3 compared to untreated controls” value in assay [1] was over 1.5 ×. For the same compound, the “expression of NFE2L2 gene compared to untreated controls” value in assay [2] is given as “statistically significant (P<0.01) increase; also recorded: significantly increased”. Also, the “expression of EFNB1 gene compared to untreated controls” value in assay [3] is given as “statistically significant (P<0.01) increase; also recorded: significantly increased”. Moreover, the “expression of SERPINE1 gene compared to untreated controls” value in assay [4] is “statistically significant (P<0.01) decrease; also recorded: significantly inhibited”. In addition, the “increase in the expression of FOXO1 compared to untreated controls” value in assay [5] is reported as over 5 ×. Besides, the “expression of SIRT1 gene compared to untreated controls” value in assay [6] was “statistically significant (P<0.01) increase; also recorded: increased significantly”.

The record behind these values is patent publication US20220226319A1, “TALTIRELIN USE” (EOLAS RESEARCH LIMITED, priority 2019, published 2022).
